Test results: paper PMC12645191, “Dicarboxylate and dicarboxylic acid appended supramolecular self-associating amphiphiles as antimicrobial agents against high priority bacterial pathogens” (Organic & Biomolecular Chemistry, 2025)
Values joined by “and” are separate entries in the source; they are usually repeats but may differ in a detail not shown here. Equal entries are not always repeated. Marks after values point to notes of the source that are not given here.

Tests used:
K. pneumoniae M6 = test: inhibition of bacterial growth, OD600 after 20 h; format: cell-based, Klebsiella pneumoniae; conditions: SSA 5.0 mM, 2.5% ethanol, negative = enhanced growth
Experimental: (§1) With the self-associative properties of 1–10 established, the antimicrobial activity of these SSAs were determined against a panel of clinically relevant, high-priority pathogens including: P. aeruginosa PAO1; Klebsiella pneumonia (K. pneumoniae) M6; E. coli NCTC 12923; Acinetobacter baumannii (A. baumannii) ATCC 17978; S. aureus ATCC 9144; Enterococcus faecalis (E. faecalis) NCTC 775; and Enterococcus faecium (E. faecium) NCTC 12204. […] However, it should be noted that the SSA stock solution was prepared in a H2O 5% EtOH solution, to ensure that the SSA aggregates formed were in line with those characterised within the scope of the SSA self-association studies.
(§2) Section 3: Biological methods
(§3) These methods were taken directly from UK Health and Security Office (UKHSA) standard […]
(§4) Preparation of Luria Broth media (LB): Yeast extract (5.0 g), tryptone (10.0 g) and sodium chloride (10.0 g) were dissolved in dH₂O (1.0 L) then divided into bottles and autoclaved.
(§5) Preparation of Luria Broth (LB) agar plates: Agar (6.0 g) was added to LB (400 mL) and autoclaved. Once cool, the LB agar was poured into sterile petri dishes under sterile conditions and allowed to set. LB plates were stored at 4 °C until use.
(§6) Preparation of bacterial plates: Sterile LB agar plates were streaked using streaked using the desired bacteria i) Pseudomonas aeruginosa (P.aeruginosa) PAO1, ii) Klebsiella pneumoniae (K. pneumoniae) M6 iii) E. coli NCTC 12923 and iv) Acinetobacter baumannii (A. baumannii) ATCC 17978 and Gram-positive i) Staphylococcus aureus (S. aureus) ATCC 9144 ii) Enterococcus faecalis (E. faecalis) NCTC 775 and iii) Enterococcus faecium (E. faecium ) NCTC 12204, then incubated at 37 °C overnight.
(§7) Preparation of Inoculum: An initial culture was made up by inoculating LB media (5 mL) with a single colony of bacteria under sterile conditions and incubated at 37 °C with shaking overnight. The following day, overnight bacterial cultures were subcultured into fresh LB medium to a starting OD600 of 0.01.
(§8) Preparation of 96 well microplate for MIC50: The 1:100 cell suspension (150 µL) was dispensed into individual wells under sterile conditions. SSAs (30 µL) were added to the wells to equal a total volume of 180 µL in the wells. Six repeats of each concentration for each SSA were created each plate. The plates were sealed using parafilm, then incubated at 37 °C in a microplate reader for 20 hours. OD600 endpoint data was used to generate growth curves. […]

[1] = dynamic light scattering (DLS) of SSA aggregates; format: physicochemical; conditions: 5.6 mM, H2O 5.0% EtOH, 298 K
Experimental: Dynamic light scattering (DLS) and zeta potential measurements in H2O 5.0% EtOH were used to determine the hydrodynamic diameter (dH) and stability of the higher-order SSA aggregates detected by (Q) ^1H NMR spectroscopy at 5.6 mM, Table 1. […] However, we are unable to confidently report a dH for 1 due to the instability of this system, which is supported by a zeta potential value of −26 mV, obtained for this SSA under the same experimental conditions. […] Due to the instability of these systems in the absence of solvent, attempts to further characterise these systems through SEM or AFM are not possible.[48]

E. faecalis NCTC 775 = test: inhibition of bacterial growth, OD600 after 20 h; format: cell-based, Enterococcus faecalis; conditions: SSA 5.0 mM, 2.5% ethanol, negative = enhanced growth
Experimental: as §1, §2, §3, §4, §5, §6, §7, §8

[2] = tensiometry: critical aggregate concentration (CAC) and surface tension; format: physicochemical; conditions: for Surface tension at CAC: H2O/5.0 % EtOH
Experimental: As the (Q) ^1H NMR spectroscopy experiments conducted at 5.6 mM in a D2O 5.0% EtOH solution confirmed the presence of higher-order self-associated structures with solid-like properties, concentration dependent surface tension measurements, obtained through tensiometry, were used to calculate critical aggregate concentration (CAC). Here the CAC is defined as the point at which an increase in SSA concentration no longer decreases surface tension but instead results in the formation of higher-order self-associated structures.

S. aureus ATCC 9144 = test: inhibition of bacterial growth, OD600 after 20 h; format: cell-based, Staphylococcus aureus; conditions: SSA 5.0 mM, 2.5% ethanol, negative = enhanced growth
Experimental: as §1, §2, §3, §4, §5, §6, §7, §8

E. faecium NCTC 12204 = test: inhibition of bacterial growth, OD600 after 20 h; format: cell-based, Enterococcus faecium; conditions: SSA 5.0 mM, 2.5% ethanol, negative = enhanced growth
Experimental: as §1, §2, §3, §4, §5, §6, §7, §8

A. baumannii ATCC 17978 = test: inhibition of bacterial growth, OD600 after 20 h; format: cell-based, Acinetobacter baumannii; conditions: SSA 5.0 mM, 2.5% ethanol, negative = enhanced growth
Experimental: as §1, §2, §3, §4, §5, §6, §7, §8

E. coli NCTC 12923 = test: inhibition of bacterial growth, OD600 after 20 h; format: cell-based, Escherichia coli; conditions: SSA 5.0 mM, 2.5% ethanol, negative = enhanced growth
Experimental: as §1, §2, §3, §4, §5, §6, §7, §8

[3] = quantitative (Q) 1H NMR spectroscopy, proportion of SSA becoming NMR silent (higher-order aggregates); format: physicochemical; conditions: for (Q) 1H NMR spectroscopy, proportion NMR silent, acid or anion / (Q) 1H NMR spectroscopy, proportion NMR silent, cation: 5.6 mM, D2O 5.0% EtOH, 298 K
Experimental: To confirm the presence of higher order self-associative structures quantitative (Q) ^1H NMR spectroscopy studies were undertaken at 5.6 mM in D2O 5% EtOH. Here the ^1H NMR resonances attributed to the EtOH are used as an internal standard.
Table S1 – Overview of results of the quantitative (Q) 1H NMR studies for 1, 3, 5, 7 and 9
5.0 % EtOH . Values given in % represent the observed proportion of the SSA that has become
Table S2 – Overview of results of the quantitative (Q) 1H NMR studies for 2, 4, 6, 8 and 10
5.0 % EtOH. Values given in % represent the observed proportion of anion and cation that has

P. aeruginosa PAO1 = test: inhibition of bacterial growth, OD600 after 20 h; format: cell-based, Pseudomonas aeruginosa; conditions: SSA 5.0 mM, 2.5% ethanol, negative = enhanced growth
Experimental: as §1, §2, §3, §4, §5, §6, §7, §8

COc1ccc(NC(=O)N[C@@H](CC(=O)O)C(=O)O)cc1 [SSA 8]
Percentage inhibition of bacterial growth, M6 (K. pneumoniae) (K. pneumoniae M6; listed as 8): 9.69% and 10% | DLS Peak 2 maxima ([1]; listed as 8): 3417 nm | Polydispersity index (%) ([1]; listed as 8): 25.6 (± 1.0) % | dH (DLS intensity distribution peak 1 maxima) ([1]; listed as 8): 313 nm | Percentage inhibition of bacterial growth, NCTC 775 (E. faecalis) (E. faecalis NCTC 775; listed as 8): 38.33% and 38% | ST at CAC ([2]; H2O 5.0% EtOH, 298 K, listed as 8): 52 mN m^−1 | Surface tension at CAC ([2]; listed as 8): 51.98 mN/m | Percentage inhibition of bacterial growth, ATCC 9144 (S. aureus) (S. aureus ATCC 9144; listed as 8): 96.79% and 97% | Percentage inhibition of bacterial growth, NCTC 12204 (E. faecium) (E. faecium NCTC 12204; listed as 8): -1.33% and −1% | Percentage inhibition of bacterial growth, ATCC 17978 (A. baumannii) (A. baumannii ATCC 17978; listed as 8): -20.26% and −20% | Percentage inhibition of bacterial growth, NCTC 12923 (E. coli) (E. coli NCTC 12923; listed as 8): 39.33% and 39% | (Q) 1H NMR spectroscopy, proportion NMR silent, acid or anion [3]: 47% | (Q) 1H NMR spectroscopy, proportion NMR silent, cation [3]: 41.8% and 42% | (Q) 1H NMR, proportion NMR silent, cation ([3]; ~112 mM, DMSO-d6 1.0% DCM): 0% | Percentage inhibition of bacterial growth, PAO1 (P. aeruginosa) (P. aeruginosa PAO1; listed as 8): 37.24% and 37%

COc1ccc(NC(=O)N[C@@H](CCC(=O)O)C(=O)O)cc1 [SSA 5]
inhibition at 5000 µM (K. pneumoniae M6; Klebsiella pneumoniae, M6, 20 h, read-out: Percentage inhibition of bacterial growth, M6 (K. pneumoniae)): 12.8% | Percentage inhibition of bacterial growth, M6 (K. pneumoniae) (K. pneumoniae M6; listed as 5): 13% | DLS Peak 2 maxima ([1]; listed as 5): 1328 nm | Polydispersity index (%) ([1]; listed as 5): 22.7 (± 1.5) % | dH (DLS intensity distribution peak 1 maxima) ([1]; listed as 5): 153 nm | inhibition at 5000 µM (E. faecalis NCTC 775; Enterococcus faecalis, NCTC775, 20 h, read-out: Percentage inhibition of bacterial growth, NCTC 775 (E. faecalis)): 13% | Percentage inhibition of bacterial growth, NCTC 775 (E. faecalis) (E. faecalis NCTC 775; listed as 5): 13% | ST at CAC ([2]; H2O 5.0% EtOH, 298 K): 58 mN m^−1 | CAC (footnote in place of a value) ([2]; H2O 5.0% EtOH, 298 K, listed as 5): ^b (CAC above the limit of solubility) | Surface tension at CAC ([2]; listed as 5): 58.22 mN/m | Percentage inhibition of bacterial growth, ATCC 9144 (S. aureus) (S. aureus ATCC 9144; listed as 5): 12.67% and 13% | inhibition at 5000 µM (E. faecium NCTC 12204; Enterococcus faecium, NCTC12204, 20 h, read-out: Percentage inhibition of bacterial growth, NCTC 12204 (E. faecium)): 5.8% | Percentage inhibition of bacterial growth, NCTC 12204 (E. faecium) (E. faecium NCTC 12204; listed as 5): 6% | Percentage inhibition of bacterial growth, ATCC 17978 (A. baumannii) (A. baumannii ATCC 17978; listed as 5): 18.61% and 19% | Percentage inhibition of bacterial growth, NCTC 12923 (E. coli) (E. coli NCTC 12923; listed as 5): 70.96% and 71% | (Q) 1H NMR spectroscopy, proportion NMR silent, acid or anion ([3]; listed as 5): 56% | (Q) 1H NMR, proportion NMR silent, SSA acid or anion ([3]; ~112 mM, DMSO-d6 1.0% DCM): 0% | Percentage inhibition of bacterial growth, PAO1 (P. aeruginosa) (P. aeruginosa PAO1; listed as 5): 0%

COc1ccc(NC(=O)N[C@@H](CCC(=O)O)C(=O)O)cc1 [SSA 6]
Percentage inhibition of bacterial growth, M6 (K. pneumoniae) (K. pneumoniae M6; listed as 6): 22.92% and 23% | DLS Peak 2 maxima ([1]; listed as 6): 5868 nm | Polydispersity index (%) ([1]; listed as 6): 21.5 (± 1.3) % | dH (DLS intensity distribution peak 1 maxima) ([1]; listed as 6): 164 nm | Percentage inhibition of bacterial growth, NCTC 775 (E. faecalis) (E. faecalis NCTC 775; listed as 6): 7.71% and 8% | ST at the limit of solubility or 100 mM, whichever concentration is lower ([2]; H2O 5.0% EtOH, 298 K): 38 ^d mN m^−1 | CAC (footnote in place of a value) ([2]; H2O 5.0% EtOH, 298 K, listed as 6): ^c (CAC is >100 mM) | Surface tension at CAC ([2]; listed as 6): 38.24 mN/m | Percentage inhibition of bacterial growth, ATCC 9144 (S. aureus) (S. aureus ATCC 9144; listed as 6): 55.64% and 56% | Percentage inhibition of bacterial growth, NCTC 12204 (E. faecium) (E. faecium NCTC 12204; listed as 6): 7.44% and 7% | Percentage inhibition of bacterial growth, ATCC 17978 (A. baumannii) (A. baumannii ATCC 17978; listed as 6): -28.50% and −29% | Percentage inhibition of bacterial growth, NCTC 12923 (E. coli) (E. coli NCTC 12923; listed as 6): 32.77% and 33% | (Q) 1H NMR spectroscopy, proportion NMR silent, acid or anion ([3]; listed as 6): 42% | (Q) 1H NMR spectroscopy, proportion NMR silent, cation ([3]; listed as 6): 41.8% and 42% | (Q) 1H NMR, proportion NMR silent, cation ([3]; ~112 mM, DMSO-d6 1.0% DCM): 0% | Percentage inhibition of bacterial growth, PAO1 (P. aeruginosa) (P. aeruginosa PAO1; listed as 6): 29.42% and 29%
